In patent US20110118262A1, “Pyrrolidinyl and Piperidinyl Compounds Useful as NHE-1 Inhibitiors” (BOEHRINGER INGELHEIM INTERNATIONAL GMBH, priority 2008, published 2011):

Target: T1, NHE-1 (Homo sapiens, UniProt P19634)
T1 construct: endogenous in cells; host or cells: HT-29
Assay: Evaluation of NHE-1 Inhibition (pHi) in HT-29 cells
Assay type: cell-based
Details: BCECF dye, 50% inhibition of the intracellular pH recovery, read-out: NHE1 HT29 pHi IC50
Procedure: Evaluation of NHE-1 Inhibition (pHi)
HT-29 cells resuspended in DMEM supplemented with 10% FBS, 1% NEAA, and 1% Penn-Strep are seeded at 10,000 cells/well in collagen coated 384 well plates which are then incubated for 24 hours at 37° C. The next day, the medium is removed and the cells are dye (Invitrogen's BCECF) loaded for 30 minutes at 37° C., washed three times with an acid loading buffer (10 mM NH4Cl, 1.8 mM CaCl2, 90 mM Choline Cl, 5 mM Glucose, 15 mM Hepes, 5 mM KCl, 1 mM MgCl2, adjusted to pH 7.5 with KOH) and further incubated at RT for 30 minutes.
At the end of the incubation, the buffer is removed and 5 uL of fresh acid loading buffer is added to each well to prevent the dessication of the cells. The plate is placed in a Hamamatsu FDSS6000 instrument and candidate compounds are added to the cells.

T1 sequence (P19634 whole entry): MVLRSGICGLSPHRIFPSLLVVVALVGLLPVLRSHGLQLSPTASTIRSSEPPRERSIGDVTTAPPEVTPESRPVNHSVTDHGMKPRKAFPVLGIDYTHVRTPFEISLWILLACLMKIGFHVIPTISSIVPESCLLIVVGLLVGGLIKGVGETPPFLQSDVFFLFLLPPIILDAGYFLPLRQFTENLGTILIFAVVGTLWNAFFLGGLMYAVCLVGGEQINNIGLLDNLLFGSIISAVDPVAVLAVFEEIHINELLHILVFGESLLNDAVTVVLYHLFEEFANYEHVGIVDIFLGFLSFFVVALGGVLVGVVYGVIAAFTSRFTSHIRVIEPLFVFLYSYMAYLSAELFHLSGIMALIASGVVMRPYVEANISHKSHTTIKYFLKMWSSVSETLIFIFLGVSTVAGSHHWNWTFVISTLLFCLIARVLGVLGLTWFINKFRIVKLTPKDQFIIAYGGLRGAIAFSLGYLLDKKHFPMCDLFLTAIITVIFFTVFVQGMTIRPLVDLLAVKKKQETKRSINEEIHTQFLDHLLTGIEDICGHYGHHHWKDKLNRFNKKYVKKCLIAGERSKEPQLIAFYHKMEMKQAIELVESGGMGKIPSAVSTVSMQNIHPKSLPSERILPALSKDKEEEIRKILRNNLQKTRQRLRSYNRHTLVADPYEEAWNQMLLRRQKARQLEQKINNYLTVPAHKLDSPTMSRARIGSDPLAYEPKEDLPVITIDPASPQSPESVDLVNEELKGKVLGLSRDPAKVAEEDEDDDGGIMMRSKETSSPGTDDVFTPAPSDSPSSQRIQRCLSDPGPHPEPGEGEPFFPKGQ

| SMILES | IC50 [nM] |
| --- | --- |
| N=C(N)NC(=O)c1ccc(C2CCN(C(=O)[C@@H]3CCC(=O)N3)CC2)c(C(F)(F)F)c1 [(S)-N-{4-[1-(-5-Oxo-pyrrolidine-2-carbonyl)-piperidin-4-yl]-3-trifluoromethyl-benzoyl}-guanidine] | 11 |
| Cc1cc(C2CCN(C(=O)CN3CCCC3=O)CC2)c(C(F)(F)F)cc1C(=O)NC(=N)N [N-(2-Methyl-4-{1-[2-(2-oxo-pyrrolidin-1-yl)-acetyl]-piperidin-4-yl}-5-trifluoromethyl-benzoyl)-guanidine] | 37 |
| CS(=O)(=O)c1ccccc1Oc1cc(C(=O)N2CCC(c3ccc(C(=O)NC(=N)N)cc3C(F)(F)F)CC2)ccn1 [N-(4-{1-[2-(2-Methanesulfonyl-phenoxy)-pyridine-4-carbonyl]-piperidin-4-yl}-3-trifluoromethyl-benzoyl)-guanidine] | 76 |
| COc1ccccc1-c1cc(C(=O)N2CCC(c3ccc(C(=O)NC(=N)N)cc3C(F)(F)F)CC2)ccn1 [N-(4-{1-[2-(2-Methoxy-phenyl)-pyridine-4-carbonyl]-piperidin-4-yl}-3-trifluoromethyl-benzoyl)-guanidine] | 200 |
| CS(=O)(=O)c1ccc(Oc2ccc(C(=O)N3CCC(c4ccc(C(=O)NC(=N)N)cc4C(F)(F)F)CC3)cn2)cc1 [N-(4-{1-[6-(4-Methanesulfonyl-phenoxy)-pyridine-3-carbonyl]-piperidin-4-yl}-3-trifluoromethyl-benzoyl)-guanidine] | 54 |
| COc1cc(C2CCN(C(C)=O)CC2)c(C(F)(F)F)cc1C(=O)NC(=N)N [N-[4-(1-Acetyl-piperidin-4-yl)-2-methoxy-5-trifluoromethyl-benzoyl]-guanidine] | 14 |
| CC(=O)N1CCC(c2cc(C)c(C(=O)NC(=N)N)cc2C(F)(F)F)CC1 [N-[4-(1-Acetyl-piperidin-4-yl)-2-methyl-5-trifluoromethyl-benzoyl]-guanidine] | 9 |
| CC(=O)N1CCC(c2ccc(C(=O)NC(=N)N)cc2S(C)(=O)=O)CC1 [N-[4-(1-Acetyl-piperidin-4-yl)-3-methanesulfonyl-benzoyl]-guanidine] | 18 |

Next, values leading:

| IC50 [nM] | SMILES |
| --- | --- |
| 18 | N=C(N)NC(=O)c1ccc([C@@H]2CCN(C(=O)c3ccc(F)cc3)C2)c(C(F)(F)F)c1 [(S)-N-{4-[-1-(4-fluoro-benzoyl)-pyrrolidin-3-yl]-3-trifluoromethyl-benzoyl}-guanidine] |
| 17 | N=C(N)NC(=O)c1ccc([C@@H]2CCN(C(=O)c3ccco3)C2)c(C(F)(F)F)c1 [(S)-N-{4-[-1-(Furan-2-carbonyl)-pyrrolidin-3--yl]-3-trifluoromethyl-benzoyl}-guanidine] |
| 135 | N=C(N)NC(=O)c1ccc(C2CCN(C(=O)Cc3ccc(F)cc3)CC2)c(C(F)(F)F)c1 [N-(4-{1-[2-(4-Fluoro-phenyl)-acetyl]-piperidin-4-yl}-3-trifluoromethyl-benzoyl)-guanidine] |
| 140 | COc1ccc(CC(=O)N2CCC(c3ccc(C(=O)NC(=N)N)cc3C(F)(F)F)CC2)cc1 [N-(4-{1-[2-(4-Methoxy-phenyl)-acetyl]-piperidin-4-yl}-3-trifluoromethyl-benzoyl)-guanidine] |
| 58 | N#Cc1ccc(CC(N)C(=O)N2CCC(c3ccc(C(=O)NC(=N)N)cc3C(F)(F)F)CC2)cc1 (stereo not shown) [N-(4-{1-[2-Amino-3-(4-cyano-phenyl)-propionyl]-piperidin-4-yl}-3-trifluoromethyl-benzoyl)-guanidine] |
| 185 | N=C(N)NC(=O)c1ccc(C2CCN(C(=O)c3cncc(-c4ccc(F)cc4)c3)CC2)c(C(F)(F)F)c1 [N-(4-{1-[5-(4-Fluoro-phenyl)-pyridine-3-carbonyl]-piperidin-4-yl}-3-trifluoromethyl-benzoyl)-guanidine] |
| 250 | COc1cccc(-c2ccc(C(=O)N3CCC(c4ccc(C(=O)NC(=N)N)cc4C(F)(F)F)CC3)cn2)c1 [N-(4-{1-[6-(3-Methoxy-phenyl)-pyridine-3-carbonyl]-piperidin-4-yl}-3-trifluoromethyl-benzoyl)-guanidine] |
| 9 | CC(=O)N1CCC(c2ccc(C(=O)NC(=N)N)cc2C(F)(F)F)CC1 [N-[4-(1-Acetyl-piperidin-4-yl)-3-trifluoromethyl-benzoyl]-guanidine] |
